Data reported in patent publication US11628186B2, “Method and composition for the reduction of viral replication, duration and spread of the COVID-19 and the flu” (priority 2017, dated 2023).
Read-outs that look alike come from different tables or passages of the source.

Legend:
non-cancerous cells = assay: Viable non-cancerous cells after incubation with anticancer drugs in various media (Table VIII); format: cell-based; design: viability: concentration or dose not given beside the values; conditions: for Percentage of viable cells after incubation with drugs: drug alone
Protocol: (§1) Peripheral blood monocytes and U937 monocytic leukemia tumor cells were placed in sterile culture flasks and maintained in culture using Dulbecco's Minimal Essential Medium, with 10% fetal calf serum, supplemented with 2 mM glutamine and Pen/Strep. The cytotoxicity of the cytotoxic agent on the cells was analyzed by propidium iodide exclusion techniques and flow cytometric quantitation. Viability of the cells was quantified as the number of cells that excluded the vital dye trypan blue. Sodium pyruvate was dissolved in distilled water and the solution was adjusted to pH 7.4 with calcium, phosphate and magnesium. Solutions were sterile filtered. Stock solutions were prepared so that the vehicle would not be more than 1% of the total volume of the culture media. H-Thymidine Radiosotopic Incorporation Measurement of Cytotoxity. The membrane surfactant enhancers agents (sodium pyruvate and calcium, phosphate and magnesium), was examined for their ability to decrease the Cytotoxity of Doxorubicin to U937 monocytic leukemia cells and normal peripheral blood monocytes. […] Susceptibility studies were conducted to determine the optimal treatment time of the cells with the […] agents prior to treatment of the cells with the cytotoxic agent. The normal cells and U937 leukemic tumor cells were pretreated separately in “wash out” studies with the single agents alone, and in combination, at the optimal concentration described above for various time periods, washed with fresh medium to remove the agents, and treated with the cytotoxic agent. The co-culture of normal and U937 leukemic […] cells was treated essentially in the same manner except that the cells were not treated separately, but co-cultured. […] The cells were then placed in culture medium without the protective agents. […] Normal and U937 tumor cells were co-cultured and the Cytotoxity of Doxorubicin on the cells was determined by viability assays which examined the differential ability of the cytoprotective compositions alone, and in combinations, to protect the normal cells from the Cytotoxity of the chemotherapeutic agent. The cells were isolated and examined for morphological evidence of cytotoxicity or prevention of cytotoxicity. […] DNA synthesis studies using 3Hthymidine (1 uCi/well) were carried out 4 hours prior to termination of the experiment to determine the effect of the formulations on the proliferation of the cells as a measure of the prevention of cytotoxicity and the extent of Doxorubicin-induced cytotoxicity. Propidium iodide exclusion analysis was carried out for direct quantitation of the cytotoxicity and the prevention of cytotoxicity. Each set of studies was performed in triplicate so that statistical analysis of the significant differences between the treatment groups could be conducted. […] Wash-out studies were conducted to determine viability of the peripheral blood monocytes co-cultured with U937 monocytic leukemia cells after 24 hour pretreatment of the cells with the surfactant enhancer, which is also a mitochondrial protective agent, followed by administration of Doxorubicin.

[1] = tested on: patients with lung diseases including COPD; assay: Comparison of inhaled salts of pyruvate, 5 ml of 0.5 mM solution (Table I)
Protocol: All previous studies using pyruvate to treat Allergic Rhinitis, Asthmatic and COPD patients used only the sodium salt form of pyruvic acid in saline. The drug products that were tested in the six Phase I/II clinical trial were differing concentrations of sodium pyruvate dissolved in 0.9% sodium chloride solution (Saline). These drug products contained 0.5 mM, 1.5 mM, or 5.0 mM of sodium pyruvate in physiological saline. They were administered to normal volunteers and COPD and asthmatics by inhalation therapy. […] Various sodium pyruvate solutions were evaluated in the lungs for their ability to enhance FEV1 values and reduce coughing, and lung tightness.
The amount of the salts delivered in the 5 ml's of the 0.5 mM pyruvate solutions were compared to the amounts of the salts in 5 ml's of human blood. […] When ethyl pyruvate reacts with oxygen radical like hydrogen peroxide, it is converted to ethane and alcohol and Co2 and acetate. Ethane and alcohol are lung irritants.
This formula can also be made by adding 3% calcium phosphate or dicalcium phosphate to the standard 0.5 mM to 30 mM sodium pyruvate saline solution see Table I.

[2] = tested on: patients with sinus & lung diseases including IPF and COPD; assay: Salts of pyruvate as 20 mM nasal sprays (Table IX)
Source text: They never tested the individual salts for their ability to reduce inflammation or increase lung functions.

[3] = tested on: patients with lung diseases including COPD; assay: Comparison of inhaled salts of pyruvate, 5 ml of 5 mM solution (Table II)
[4] = tested on: patients suffering from Parkinson; assay: Inhaled pyruvate salts in Parkinson patients; format: in vivo, human; conditions: 1 mM solution in the calcium, phosphate, magnesium formula, inhaled every day for five weeks
[5] = Viable non-cancerous cells after incubation with anticancer drugs in various media (Table VIII); format: cell-based; design: viability: concentration or dose not given beside the values; conditions: non-cancerous cells (normal peripheral blood monocytes)
Protocol: as §1

[6] = Drugs in commercial formula with sodium chloride only
[7] = Drugs in commercial formula with sodium pyruvate with calcium & phosphate & Magnesium ions repeat study
[8] = 5 ml of 0.5 mM solution in physiological saline, inhaled
[9] = 5 ml of 0.5 mM solution, inhaled
[10] = 5 ml of 0.5 mM solution, 1 most negative, 10 best
[11] = 20 mM (0.22%) nasal spray, 1 most negative, 10 best
[12] = 5 ml of 5 mM solution in saline, inhaled
[13] = 5 ml of 5 mM solution, 1 most negative, 10 best
[14] = Drugs in commercial formula with sodium pyruvate without calcium & phosphate & magnesium
[15] = Drugs in commercial formula with sodium chloride only, read-out: Percentage of viable non-cancerous cells
[16] = Drugs in commercial formula with sodium pyruvate with calcium & phosphate & Magnesium ions repeat study, read-out: Percentage of viable non-cancerous cells
[17] = Drugs in commercial formula with sodium pyruvate with calcium & phosphate & magnesium ions, read-out: Percentage of viable non-cancerous cells
[18] = Drugs in commercial formula with sodium pyruvate without calcium & phosphate & magnesium, read-out: Percentage of viable non-cancerous cells
[19] = drug alone, read-out: Percentage of viable cells after incubation with drugs
[20] = Drugs in commercial formula with sodium pyruvate with calcium & phosphate & magnesium ions

## N.N.O=C([O-])C1(C(=O)[O-])CCC1.[Pt+2] [Carboplatin]
non-cancerous cells; [6]
  Percentage of viable non-cancerous cells: 50%
non-cancerous cells; [7]
  Percentage of viable non-cancerous cells: 97%
non-cancerous cells
  Percentage of viable cells after incubation with drugs: 42%

## CC(=O)C(=O)[O-].[Li+] [Lithium, lithium pyruvate]
[1]; [8]
  Increased in FEV-1% lung function: 1.0%
[1]; [9]
  Irritation: Yes
  Percentage Increase in SaO2 over baseline: No
  Percentage decrease or increase of Nitric Oxide over baseline: +6.0%
  Relief of congestion, coughing and lung tightness: 2
[1]; [10]
  Overall Rating 1-10: 2
[1]; 5 mls of a 0.5 mM inhalation solution
  reduction of nitric oxide: did not reduce nitric oxide
[1]; evaluated in the nasal cavities
  irritation in the nasal cavities compared with the lungs: even more irritating
[1]; inhaled
  bronchial dilator effect: acting as a bronchial dilator
[1]; inhaled into the lungs
  Irritation: irritating
[2]; [11]
  Overall Rating 1-10: 2
[2]; in vivo
  Increased in FEV-1%: 0.0%
  Irritation: Yes
  Percentage Increase in SaO2 over baseline: No
  Percentage increase of Nitric Oxide over baseline: 00.0%
  Relief of congestion, coughing and lung tightness: 2
[3]; [12]
  Increased in FEV-1%: 1.0%
[3]; 5 ml of 5 mM solution, inhaled
  Irritation: Yes
  Percentage Increase in SaO2 over baseline: No
  Percentage increase of Nitric Oxide over baseline: 28.0%
  Relief of congestion, coughing and lung tightness: 2
[3]; [13]
  Overall Rating 1-10: 2
[4]
  shaking: substantially reduced

## Bevacizumab
non-cancerous cells; [6]
  Percentage of viable non-cancerous cells: 27%
non-cancerous cells; [14]
  Percentage of viable non-cancerous cells: 40%
non-cancerous cells
  Percentage of viable cells after incubation with drugs: 21%

## CC(C)(C#N)c1cc(Cn2cncn2)cc(C(C)(C)C#N)c1 [anastrozole]
[5]; [15]
  viability: 25%
[5]; [16]
  viability: 94%
[5]; [17]
  viability: 86%
[5]; [18]
  viability: 50%
[5]; [19]
  viability: 24%

## O=C1[O][Pt]2([NH][C@@H]3CCCC[C@H]3[NH]2)[O]C1=O [oxaliplatin]
non-cancerous cells; [6]
  Percentage of viable non-cancerous cells: 24%
non-cancerous cells; [7]
  Percentage of viable non-cancerous cells: 98%
non-cancerous cells; [20]
  Percentage of viable non-cancerous cells: 95%
non-cancerous cells; [14]
  Percentage of viable non-cancerous cells: 41%
non-cancerous cells
  Percentage of viable cells after incubation with drugs: 23%

## CN(Cc1cnc2nc(N)nc(N)c2n1)c1ccc(C(=O)N[C@@H](CCC(=O)O)C(=O)O)cc1 [methotrexate]
[5]; [15]
  viability: 43%
[5]; [16]
  viability: 98%
[5]; [17]
  viability: 94%
[5]; [18]
  viability: 68%
[5]; [19]
  viability: 42%

## O=c1[nH]c(=O)n([C@H]2C[C@H](O)[C@@H](CO)O2)cc1F [floxuridine]
[5]; [15]
  viability: 38%
[5]; [16]
  viability: 91%
[5]; [17]
  viability: 92%
[5]; [18]
  viability: 58%
[5]; [19]
  viability: 38%

## Bleomycin
non-cancerous cells; [6]
  Percentage of viable non-cancerous cells: 33%
non-cancerous cells; [7]
  Percentage of viable non-cancerous cells: 98%
non-cancerous cells; [20]
  Percentage of viable non-cancerous cells: 98%
non-cancerous cells; [14]
  Percentage of viable non-cancerous cells: 47%
non-cancerous cells
  Percentage of viable cells after incubation with drugs: 31%

## magnesium pyruvate
[1]; [8]
  Increased in FEV-1% lung function: 12.0%
[1]; [9]
  Irritation: None
  Percentage Increase in SaO2 over baseline: no
  Percentage decrease or increase of Nitric Oxide over baseline: −2.0%
  Relief of congestion, coughing and lung tightness: 6
[1]; [10]
  Overall Rating 1-10: 7
[1]; 5 mls of a 0.5 mM pyruvate inhalation solution in COPD and asthmatic patients
  FEV1: 10%
[2]; [11]
  Overall Rating 1-10: 4
[2]; in vivo
  Increased in FEV-1%: 4.0%
  Irritation: slight
  Percentage Increase in SaO2 over baseline: no
  Percentage increase of Nitric Oxide over baseline: 5.1%
  Relief of congestion, coughing and lung tightness: 6
[3]; [12]
  Increased in FEV-1%: 2.0%
[3]; 5 ml of 5 mM solution, inhaled
  Irritation: None
  Percentage Increase in SaO2 over baseline: no
  Percentage increase of Nitric Oxide over baseline: 5.1%
  Relief of congestion, coughing and lung tightness: 6
[3]; [13]
  Overall Rating 1-10: 7
[4]
  shaking: also worked

## O=P(O)(O)O [Potassium Phosphate, reference compound]
[1]; in vivo
  Increased in FEV-1% lung function: 0%
  Overall Rating 1-10: 3
  Percentage Increase in SaO2 over baseline: No
  Percentage decrease or increase of Nitric Oxide over baseline: 0%
  Relief of congestion, coughing and lung tightness: 4
[2]; in vivo
  Increased in FEV-1%: 0.0%
  Overall Rating 1-10: 3
  Percentage Increase in SaO2 over baseline: No
  Percentage increase of Nitric Oxide over baseline: 0%
  Relief of congestion, coughing and lung tightness: 4
[3]; in vivo
  Increased in FEV-1%: 0%
  Overall Rating 1-10: 3
  Percentage Increase in SaO2 over baseline: No
  Percentage increase of Nitric Oxide over baseline: 0%
  Relief of congestion, coughing and lung tightness: 4
